In BindingDB's records for doi:10.1021/jm00169a008 (Tsukuba Research Laboratories, 1990) one finds IC50 data, which are given here for seven molecules.

Where a name gives a salt, the structure may show the parent alone.

The target of this experiment is T1, Acetylcholinesterase (Mus musculus, UniProt P21836).
T1 sequence (P21836 whole entry): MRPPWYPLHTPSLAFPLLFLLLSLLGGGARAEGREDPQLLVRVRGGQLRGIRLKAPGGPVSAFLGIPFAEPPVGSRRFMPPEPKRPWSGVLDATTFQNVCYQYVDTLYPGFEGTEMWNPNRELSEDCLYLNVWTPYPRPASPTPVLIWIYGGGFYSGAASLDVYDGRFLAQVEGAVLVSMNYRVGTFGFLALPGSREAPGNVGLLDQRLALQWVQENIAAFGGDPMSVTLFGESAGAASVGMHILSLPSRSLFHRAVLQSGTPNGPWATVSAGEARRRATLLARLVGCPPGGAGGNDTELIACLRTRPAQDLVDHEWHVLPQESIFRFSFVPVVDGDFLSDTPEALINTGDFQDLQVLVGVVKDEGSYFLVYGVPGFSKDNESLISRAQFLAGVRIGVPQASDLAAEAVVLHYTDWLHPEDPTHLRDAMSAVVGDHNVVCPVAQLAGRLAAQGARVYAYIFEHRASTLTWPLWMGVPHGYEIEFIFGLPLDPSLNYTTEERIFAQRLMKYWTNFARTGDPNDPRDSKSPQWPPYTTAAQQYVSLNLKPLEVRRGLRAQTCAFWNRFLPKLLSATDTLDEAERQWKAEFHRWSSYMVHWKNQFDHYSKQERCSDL
The experiment is described as follows: Enzyme Inhibition Assay.

One may read the IC50 as the concentration that gives 50% inhibition. Read a high IC50 as weaker potency.

As to `CN(CCC1CCN(Cc2cccc([N+](=O)[O-])c2)CC1)C(=O)c1ccccc1` [N-methyl-N-(2-{1-[(3-nitrophenyl)methyl]piperidin-4-yl}ethyl)benzamide hydrochloride], the midpoint of inhibition, the IC50, lay at 0.37 µM.

Take `CN(CCC1CCNCC1)C(=O)c1ccccc1` [(2E)-but-2-enedioic acid; N-methyl-N-[2-(piperidin-4-yl)ethyl]benzamide]: the IC50 worked out at 26 µM.

On to `CN(CCC1CCN(C(=O)c2ccccc2)CC1)C(=O)c1ccccc1` [N-[2-(1-benzoylpiperidin-4-yl)ethyl]-N-methylbenzamide], for which 52 µM corresponded to half-maximal inhibition (IC50). This IC50 lies about 2-fold higher than the previous one.

In turn, `CN(CCC1CCN(Cc2ccc([N+](=O)[O-])cc2)CC1)C(=O)c1ccccc1` [N-methyl-N-(2-{1-[(4-nitrophenyl)methyl]piperidin-4-yl}ethyl)benzamide hydrochloride] had an IC50 of 3.3 µM.

`Cc1cccc(CN2CCC(CCN(C)C(=O)c3ccccc3)CC2)c1` registered an IC50 of 0.145 µM. This IC50 is about 23-fold lower than that of the molecule before.

For `CN(CCC1CCN(CCc2ccccc2)CC1)C(=O)c1ccccc1` [N-methyl-N-{2-[1-(2-phenylethyl)piperidin-4-yl]ethyl}benzamide hydrochloride], half-maximal inhibition (IC50) required 13 µM. Against the preceding molecule, the IC50 is about 90-fold higher.

Regarding `Cc1ccccc1CN1CCC(CCN(C)C(=O)c2ccccc2)CC1` [N-methyl-N-(2-{1-[(2-methylphenyl)methyl]piperidin-4-yl}ethyl)benzamide hydrochloride], the IC50 was 0.77 µM.
